Measurements as given in the NIST ThermoML archive (doi:10.1021/je301147k).
Numbers after ± are expanded uncertainties.

Test: mn = molality of the nth substance listed, in mol/kg
Details: for electrical conductivity: 100 kPa, Liquid, CyberScan CON1500 Bench Conductivity Meter; for surface tension liquid-gas: 298.2 K, Ring tensiometer

CCCCCCCCCCCCn1cc[n+](C)c1.[Br-] [1-dodecyl-3-methylimidazolium bromide] + O
electrical conductivity [S/m]
Details	288.15 K	293.15 K	298.15 K	303.15 K
m1 = 0.001	0.00769 ± 0.00015	0.00898 ± 0.00017	0.01 ± 0.00019	0.0112 ± 0.00021
m1 = 0.002	0.0157 ± 0.00029	0.0181 ± 0.00033	0.0198 ± 0.00037	0.0223 ± 0.00041
m1 = 0.003	0.0224 ± 0.00042	0.0261 ± 0.00048	0.029 ± 0.00054	0.032 ± 0.00059
m1 = 0.004	0.0302 ± 0.00057	0.0345 ± 0.0006	0.0386 ± 0.00072	0.0427 ± 0.00079
m1 = 0.005	0.0379 ± 0.0007	0.043 ± 0.00079	0.048 ± 0.00088	0.0519 ± 0.00096
m1 = 0.006	0.0445 ± 0.00083	0.0504 ± 0.00093	0.0563 ± 0.001	0.0626 ± 0.0012
m1 = 0.007	0.052 ± 0.00097	0.0589 ± 0.0011	0.0655 ± 0.0012	0.0728 ± 0.0014
m1 = 0.008	0.0589 ± 0.0011	0.0664 ± 0.0012	0.0741 ± 0.0014	0.0824 ± 0.0015
m1 = 0.009	0.0657 ± 0.0012	0.074 ± 0.0014	0.0823 ± 0.0015	0.0916 ± 0.0017
m1 = 0.01	0.0717 ± 0.0013	0.0814 ± 0.0014	0.0909 ± 0.0016	0.101 ± 0.0018
m1 = 0.011	0.0758 ± 0.0013	0.0853 ± 0.0014	0.0963 ± 0.0016	0.107 ± 0.0018
m1 = 0.012	0.0776 ± 0.0013	0.0876 ± 0.0014	0.0986 ± 0.0016	0.111 ± 0.0018
m1 = 0.013	0.0799 ± 0.0013	0.0907 ± 0.0015	0.102 ± 0.0017	0.116 ± 0.0019
m1 = 0.014	0.0814 ± 0.0013	0.0922 ± 0.0015	0.104 ± 0.0017	0.118 ± 0.0019
m1 = 0.015	0.0837 ± 0.0014	0.0947 ± 0.0015	0.107 ± 0.0018	0.122 ± 0.002
m1 = 0.016	0.0854 ± 0.0014	0.0966 ± 0.0016	0.11 ± 0.0018	0.124 ± 0.002
m1 = 0.017	0.0874 ± 0.0014	0.0986 ± 0.0016	0.112 ± 0.0018	0.127 ± 0.0021
m1 = 0.018	0.0882 ± 0.0014	0.0998 ± 0.0016	0.113 ± 0.0018	0.129 ± 0.0021
m1 = 0.019	0.0893 ± 0.0014	0.101 ± 0.0017	0.115 ± 0.0019	0.131 ± 0.0021
m1 = 0.02	0.0913 ± 0.0015	0.104 ± 0.0017	0.118 ± 0.0019	0.134 ± 0.0022
m1 = 0.021	0.0923 ± 0.0015	0.106 ± 0.0017	0.12 ± 0.002	0.136 ± 0.0022
m1 = 0.022	0.0935 ± 0.0015	0.107 ± 0.0017	0.122 ± 0.002	0.139 ± 0.0023
m1 = 0.023	0.0948 ± 0.0015	0.109 ± 0.0018	0.125 ± 0.002	0.141 ± 0.0023
m1 = 0.024	0.0964 ± 0.0016	0.111 ± 0.0018	0.127 ± 0.0021	0.144 ± 0.0024
m1 = 0.025	0.0985 ± 0.0016	0.112 ± 0.0019	0.129 ± 0.0021	0.146 ± 0.0024

Details	surface tension liquid-gas [mN/m]
m1 = 0.0005	68.38 ± 1.9
m1 = 0.001	62.44 ± 1.8
m1 = 0.002	58.12 ± 1.6
m1 = 0.004	51.39 ± 1.4
m1 = 0.006	43.7 ± 1.2
m1 = 0.008	40.35 ± 1.1
m1 = 0.01	36.83 ± 1.1
m1 = 0.012	36.51 ± 1
m1 = 0.014	36.56 ± 1
m1 = 0.016	36.65 ± 1
m1 = 0.018	36.6 ± 1
m1 = 0.02	36.57 ± 1
m1 = 0.025	36.54 ± 1
m1 = 0.03	36.48 ± 1
m1 = 0.04	36.67 ± 1
m1 = 0.05	36.67 ± 1
